One data set has as its system human erythrocytes. The experiment in a line: Haemolysis assay. The note with it: human, 1 h, pH 7.4. The data set is classed as cell-based. Here is the method: To select the lead compounds, the toxicity of 1–10 was tested against human erythrocytes as their hemolytic activity (HC50). The HC50 is determined as the concentration at which 50% of the compound treated cells are lysed. […] The HC50 for compounds 6–8 was also greater than 500 μM. […] Based on the in vitro activity and hemolysis studies, VanQbiph (4) from the aryl-substituted compounds and VanQAmC10 (8) from the alkyl-chain substituted compounds were selected for further investigations. […] VanQAmC10 (8) was additionally non-toxic to RAW 264.7 cells up to 40 μM and was therefore taken forward in vivo investigation.[18]
50 μL of serially diluted compound was added into 96 well microtiter plates. Freshly drawn, heparanized human blood was centrifuged down to obtain the erythrocytes and re-suspended to 5 vol % in PBS (pH 7.4). 150 μL of the erythrocyte suspension was added to the serially diluted compounds (from 500 µM to 2 µM). One set without compound and other with 50 μL of 1 vol % solution of Triton X-100 were kept as controls. The plates were incubated at 37 °C for 1 h followed by centrifugation at 3,500 rpm for 5 min. 100 μL of the supernatant from each well were transferred into fresh microtiter plates, and A540 was measured.
% haemolysis = (A - A0)/(Atotal -A0) × 100, where A is the absorbance of the test well, A 0 the absorbance of the negative controls (without compound), and A total the absorbance of 100 % hemolysis wells (with Triton X -100), all at 540 nm. […]

In data set [1] the test system is VRSA 1 (vancomycin-resistant S. aureus). Details: method as in PMID 32195571. Particulars: previously reported; cited from earlier work.
In data set [2] the test system is carbapenem-resistant A. baumannii. The experiment in a line: Murine chronic burn-wound infection model. The data set is classed as in vivo, mice. Particulars: 30 mg kg^−1 topically for 5 days; untreated 8 log CFU g^−1. Here is the method: Fig. 6 (A) Propensity of vancomycin and VanQAmC10 to induce resistance in MRSA upon serial exposure to sub-MIC concentrations; (B) (i) experimental design for in vivo efficacy study in a murine thigh infection model, (ii) in vivo efficacy of VanQAmC10 and vancomycin against the multidrug-resistant methicillin-resistant S. aureus (MRSA) (n = 3/dose). Antibiotics were administered intraperitoneally twice at 12 h intervals at a dose of 12 mg kg^−1. (C) (i) Experimental design for in vivo efficacy study in murine burn wound infection model, (ii) in vivo efficacy of VanQAmC10 and colistin against the carbapenem-resistant A. baumannii (n = 5/dose, 1 mouse died in untreated control). VanQAmC10 and colistin were treated topically at 30 mg kg^−1 for 5 days (‘***’ indicates p < 0.0001, ‘**’ indicates p < 0.001, ‘*’ p < 0.05, p = 0.08 (n.s.) for VanQAmC10 with respect to vancomycin).
Further, the efficacy of VanQAmC10 (8) was tested in a chronic burn-wound infection model of A. baumannii.[40] Chronic burn wounds on the back of mice were infected with A. baumannii. […] Infected mice were treated with 30 mg kg^−1 of VanQAmC10 and colistin for five days consecutively. The bacterial load in the untreated group increased to 8 log CFU g^−1 six days post-infection. […] The use of colistin is however limited due to its toxicity and bacteria easily develop resistance to it. […]

A further data set deals with E. coli. The experiment in a line: MIC against E. coli. Format: cell-based. The note with it: Escherichia coli.
In data set [3] the test system is VRSA 4 (vancomycin-resistant S. aureus). More on the design: method as in PMID 32195571. The note with it: previously reported; cited from earlier work.
A further data set has as its system VRE ATCC 51575. The experiment in a line: Activity in blood plasma and liver homogenate. Format: cell-based, E. faecalis. The note with it: for MIC: Enterococcus, VRE ATCC 51575. Here is the method: (§1) Table S1: Activity of VanQAmC10 in mouse plasma and liver homogenate against MRSA […]
(§2) MIC of VanQAmC10 post incubation in (μM) […]
(§3) Activity in blood plasma and liver homogenate
(§4) To examine the susceptibility of VanQAmC10 to serum proteases, the antibacterial activities was tested in the presence of 50% of plasma and liver homogenate. Briefly, 250 μL of VanQAmC10 was added into 250 μL of fresh […] plasma and incubated at 37 °C. An aliquot of the samples 3 h and 24h post-incubation was diluted in 0.9% saline and the antibacterial activity (MIC) were determined against MRSA and VRE by following the same protocol as described above for the antibacterial assay. […]
(§5) 50 μL of ∼10^6 CFU/mL bacterial inoculum (MRSA ATCC33591) was injected into the thigh. 1 h post-inoculation, animals were treated intraperitoneally twice with 12 h intervals with saline, vancomycin (12 mg kg−1), and VanQAmC10 (12 mg kg−1). 24 h post the first treatment, the animals were euthanized (using ether) and the thighs were collected aseptically. The thigh tissue was weighed and homogenized. The dilutions of the homogenate were plated onto agar plates, which were incubated overnight at about 37 °C. […]
(§6) In-vivo activity in murine burn wound infectionmodel 10-12

The subject of data set [4] is VRE 51559 (vancomycin-resistant E. faecium, VanA phenotype, ATCC 51559). Details: method as in PMID 32195571. Particulars: previously reported; cited from earlier work.
Another data set has as its system MRSA ATCC 33591. The experiment in a line: Activity in blood plasma and liver homogenate. Particulars: for MIC: Staphylococcus aureus. The data set is classed as cell-based, S. aureus. Here is the method: as §1, §2, §3, §4, §5, §6

The structures appear in SMILES notation. Where two headings read alike, the source gives them in different places.

In general, HC50 refers to the concentration giving 50% haemolysis. A lower HC50 goes with stronger haemolysis. What is called MIC is the smallest concentration in the dilution series that meets the test's criterion for growth inhibition.

With `CNC(CC(C)C)C(=O)NC1C(=O)NC(CC(N)=O)C(=O)NC2C(=O)NC3C(=O)NC(C(=O)NC(C(=O)NCCC[N+](C)(C)Cc4ccc(-c5ccccc5)cc4)c4cc(O)cc(O)c4-c4cc3ccc4O)C(O)c3ccc(c(Cl)c3)Oc3cc2cc(c3OC2OC(CO)C(O)C(O)C2OC2CC(C)(N)C(O)C(C)O2)Oc2ccc(cc2Cl)C1O` (centres unmarked) [VanQbiph (4)], in the data set with human erythrocytes, the concentration for 50% haemolysis (HC50) was above 500 µM.

As for `CCCCCCCCCCNC(=O)C[N+](C)(C)CCCNC(=O)C1NC(=O)C2NC(=O)C(NC(=O)C3NC(=O)C(CC(N)=O)NC(=O)C(NC(=O)C(CC(C)C)NC)C(O)c4ccc(c(Cl)c4)Oc4cc3cc(c4OC3OC(CO)C(O)C(O)C3OC3CC(C)(N)C(O)C(C)O3)Oc3ccc(cc3Cl)C2O)c2ccc(O)c(c2)-c2c(O)cc(O)cc21` (centres unmarked) [VanQAmC10 (8)], the “Minimum inhibitory concentration, VRSA 1” value in data set [1] was 3.1 µM. Also, the “lower bacterial load as compared to the untreated mice” value in data set [2] was determined as 2.2 log CFU g^−1. Also, the MIC was determined as 16 µM against E. coli; 4 µM with VRE ATCC 51575 (50% plasma, 37 °C, read-out: MIC post incubation in plasma); 4 µM with VRE ATCC 51575 (read-out: MIC post incubation in liver homogenate); 4 µM in the data set with VRE ATCC 51575 (read-out: MIC post incubation in media); 0.4 µM in the data set on MRSA ATCC 33591 (read-out: MIC post incubation in plasma); 0.4 µM with MRSA ATCC 33591 (MRSA ATCC 33591, read-out: MIC post incubation in liver homogenate). Further, in the data set on MRSA ATCC 33591 (MRSA ATCC 33591, read-out: MIC post incubation in media), the MIC turned out to be 0.4 µM. The “Minimum inhibitory concentration, VRSA 4” value in data set [3] was 1.6 to 3.1 µM. Further, the “change of MIC in plasma and liver homogenate” value in the data set with VRE ATCC 51575 (VRE) and in the data set with MRSA ATCC 33591 (MRSA) was “remained unchanged” throughout. The “Minimum inhibitory concentration, VRE 51559” value in data set [4] was 4 µM.

Source of the values: article PMC9977398, “Next-generation membrane-active glycopeptide antibiotics that also inhibit bacterial cell division” (Chemical Science, 2023).
